Source: US6924298B2, “2-(3,5-Disubstituted-4-pyridyl)-4-(thienyl, thiazolyl or arylphenyl)-1,3-oxazoline compounds” (Dow AgroSciences LLC, priority 2000, dated 2005)
Where two headings read alike, the source gives them in different places.

What was measured:
Type in all cases: in vivo
[1] = system: cotton aphid (Aphis gossypii); assay: Insecticidal test for cotton aphid, spray on infested squash cotyledons; settings: Aphis gossypii, 72 h, read-out: CA: activity at 50 ppm against cotton aphid (% Control rating)
Procedure: Insecticidal Test for Cotton Aphid (Aphis gossypii)
To prepare spray solutions, 1 mg of each test compound was dissolved into 1 mL of a 90:10 acetone:ethanol solvent. This 1 mL of chemical solution was added to 19 mL of water containing 0.05% Tween 20 surfactant to produce a 50 ppm spray solution.
Squash cotyledons were infested with cotton aphid (all life stages)16-20 hours prior to application of spray solution. The solution was sprayed on both sides of each infested squash cotyledon (0.5 mL×2 each side) with a sweeping action until runoff. The plants were allowed to air dry and held for 3 days in a controlled room at 26° C. and 40% RH after which time the test was graded. Grading was by actual count using a dissecting microscope and comparison of test counts to the untreated check. Results are given in Tables 1-4 as percent control based on population reduction versus the untreated.

[2] = system: sweetpotato whitefly (Bemisia tabacia); assay: Insecticidal test for sweetpotato whitefly, spray on cotton plants; settings: 312 h, 200 ppm spray, large nymphs counted after 13 days, read-out: WF: activity at 200 ppm against whitefly (% Control rating)
Procedure: Insecticidal Test for Sweetpotato Whitefly (Bemisia tabacia)
Four mg of each test compound was dissolved by adding 4 mL of a 90:10 acetone:ethanol solvent mixture to the vial containing the sample compound. This solution was added to 16 mL of water containing 0.05% Tween 20 surfactant to produce 20 mL of a 200 ppm spray solution.
Five-week-old cotton plants reared in a greenhouse were stripped of all foliage except for the two uppermost true leaves that were greater than 5 cm in diameter.
These plants were then placed into a laboratory colony of whiteflies for two days for oviposition by the colony females. All whiteflies were then removed from the test plants with pressurized air. The spray solution was then applied to the test plants with a hand-held syringe fitted with hollow cone nozzle. One mL of spray solution was applied to each leaf top and bottom for a total of 4 mL per plant. Four replications of each test compound utilized a total of 16 mL spray solution. Plants were air dried and then placed in a holding chamber (28° C. and 60% RH) for 13 days. Compound efficacy was evaluated by counting, under an illuminated magnifying glass, the number of large nymphs (3rd-4th instar) per leaf.
Percent control based on reduction of large nymphs of a test compound compared to solution-only (no test compound) sprayed plants is reported in Tables 1-4.

[3] = system: two-spotted spider mite (Tetranychus urticae); assay: Insecticidal test for two-spotted spider mite, ovicide method on cotton leaf discs; settings: Tetranychus urticae, foliar, 144 h, hatched larvae after 6 days, read-out: SM: activity against two-spotted spider mite (% Control rating)
Procedure: Insecticidal Test for Two-Spotted Spider Mite (Tetranychus urticae) Ovicide Method: Ten adult female two-spotted spider mites were placed on eight 2.2 cm leaf discs of cotton leaf, allowed to oviposit over 24 hours, and thereafter removed. […] Discs were placed on an agar substrate and held at 24° C. and 90% RH for 6 days.

[4] = system: cabbage looper (Trichoplusia ni); assay: Insecticidal test for cabbage looper, treated cabbage leaf disc; settings: Trichoplusia ni, foliar, 120 h, read-out: CL: activity at 400 ppm against cabbage looper (% Control rating)
Procedure: (§1) Insecticidal Test for Tobacco Budworm (Heliothis virescens), Beet Armyworm (Spodoptera exigua), and Cabbage Looper (Trichoplusia ni).
(§2) To prepare the test solution, the test compound was formulated at 400 ppm in 7.5 mL of 2 acetone:1 tap water. 250 μL of the test solution was pipetted upon the surface of 8 mL of lepidopteran diet (modified Shorey) contained in each of five one-ounce plastic cups (one cup=1 replication). A second-instar beet armyworm was placed upon the treated diet in each cup once the solvent had air-dried. The solutions remaining after completing applications to the one-ounce cups were then used as leaf-dip solutions for 3.5 cm leaf discs cut from cabbage leaves and cotton cotyledons. Five discs of each type of plant were dipped until thoroughly coated into each rate of each compound (=5 replications of each treatment). After air-drying, the treated leaf discs were placed individually into one-ounce plastic cups. Each dried, treated cotton cotyledon disc was infested with a 2nd instar tobacco budworm larva, and each cabbage leaf disc was infested with a 2nd instar cabbage looper larva. Cups containing the treated substrates and larvae were capped and then held in a growth chamber at 25° C., 50-55% RH, and 14 hr light: 10 hr dark for 5 days.

[5] = system: beet armyworm (Spodoptera exigua); assay: Insecticidal test for beet armyworm, treated lepidopteran diet; settings: Spodoptera exigua, 120 h, read-out: BAW: activity at 400 ppm against beet armyworm (% Control rating)
Procedure: as §1, §2

[6] = 50 ppm spray, squash cotyledons, all life stages, 3 days
[7] = 400 ppm, leaf-dip cabbage leaf disc, 2nd instar larvae, 5 days
[8] = 400 ppm, treated diet surface, second-instar larvae, 5 days

Clc1cncc(Cl)c1C1=NC(c2ccccc2)CO1 (centres unmarked) [Compound 1]
pest or weed control at 50 ppm [1, 6]: < 50% | pest or weed control at 200 ppm [2]: < 50%

Clc1ccc(C2COC(c3c(Cl)cncc3Cl)=N2)cc1 (centres unmarked) [Compound 2]
pest or weed control at 50 ppm [1, 6]: 90 to 100% | pest or weed control [3]: < 50% | pest or weed control at 200 ppm [2]: < 50%

Fc1ccc(C2COC(c3c(Cl)cncc3Cl)=N2)cc1 (centres unmarked) [Compound 3]
pest or weed control at 50 ppm [1, 6]: 80 to 89% | pest or weed control at 200 ppm [2]: 80 to 89%

Clc1cncc(Cl)c1C1=NC(c2ccc(Br)cc2)CO1 (centres unmarked) [Compound 4, 2-(3,5-dichloro-4-pyridinyl)-4-(4-bromophenyl)oxazoline]
pest or weed control at 50 ppm [1, 6]: 90 to 100% | pest or weed control [3]: 90 to 100%

FC(F)(F)Oc1ccc(-c2ccc(C3COC(c4c(Cl)cncc4Cl)=N3)cc2)cc1 (centres unmarked) [Compound 6]
pest or weed control at 50 ppm [1, 6]: 90 to 100% | pest or weed control [3]: 90 to 100% | pest or weed control at 400 ppm [4, 7]: 90 to 100% | pest or weed control at 200 ppm [2]: < 50% | pest or weed control at 400 ppm [5, 8]: 90 to 100%

COc1ccc(-c2ccc(C3COC(c4c(Cl)cncc4Cl)=N3)cc2)cn1 (centres unmarked) [Compound 7]
pest or weed control [3]: 90 to 100% | pest or weed control at 400 ppm [4, 7]: 80 to 89% | pest or weed control at 400 ppm [5, 8]: 60 to 69%

Cc1ccc(-c2ccc(C3COC(c4c(Cl)cncc4Cl)=N3)cc2)cc1C (centres unmarked) [Compound 8]
pest or weed control at 50 ppm [1]: 80 to 89% | pest or weed control at 400 ppm [4]: 80 to 89% | pest or weed control at 400 ppm [5]: 90 to 100%

Cc1ccc(-c2ccc(C3COC(c4c(Cl)cncc4Cl)=N3)cc2)cc1 (centres unmarked) [Compound 9]
pest or weed control at 50 ppm [1]: 90 to 100% | pest or weed control at 400 ppm [5]: 90 to 100%

Cc1ccc(-c2ccc(C3COC(c4c(Cl)cncc4Cl)=N3)cc2)s1 (centres unmarked) [Compound 10]
pest or weed control at 50 ppm [1]: 60 to 69% | pest or weed control at 400 ppm [4]: 90 to 100% | pest or weed control at 400 ppm [5]: 80 to 89%

Clc1cncc(Cl)c1C1=NC(c2ccc(I)cc2)CO1 (centres unmarked) [Compound 11, 2-(3,5-dichloro-4-pyridinyl)-4-(4-iodophenyl)oxazoline]
pest or weed control at 50 ppm [1, 6]: 90 to 100% | pest or weed control [3]: 90 to 100% | pest or weed control at 200 ppm [2]: 90 to 100%

Clc1cncc(Cl)c1C1=NC(c2ccc(-c3ccc4c(c3)OCO4)cc2)CO1 (centres unmarked) [Compound 13]
pest or weed control at 50 ppm [1, 6]: 80 to 89% | pest or weed control [3]: < 50% | pest or weed control at 400 ppm [4, 7]: 90 to 100% | pest or weed control at 400 ppm [5, 8]: 60 to 69%

Fc1ccc(-c2ccc(C3COC(c4c(Cl)cncc4Cl)=N3)cc2)cc1F (centres unmarked) [Compound 14]
pest or weed control at 50 ppm [1, 6]: 60 to 69% | pest or weed control [3]: 90 to 100% | pest or weed control at 400 ppm [5, 8]: 80 to 89%

FC(F)(F)c1cccc(-c2ccc(C3COC(c4c(Cl)cncc4Cl)=N3)cc2)c1 (centres unmarked) [Compound 15]
pest or weed control at 50 ppm [1, 6]: < 50% | pest or weed control [3]: < 50% | pest or weed control at 400 ppm [4, 7]: 90 to 100% | pest or weed control at 400 ppm [5, 8]: 90 to 100%

Clc1ccccc1-c1ccc(C2COC(c3c(Cl)cncc3Cl)=N2)cc1 (centres unmarked) [Compound 18]
pest or weed control at 50 ppm [1, 6]: 50 to 59% | pest or weed control [3]: < 50% | pest or weed control at 400 ppm [4, 7]: 80 to 89%

Fc1cccc(-c2ccc(C3COC(c4c(Cl)cncc4Cl)=N3)cc2)c1 (centres unmarked) [Compound 19]
pest or weed control at 50 ppm [1, 6]: < 50% | pest or weed control [3]: 90 to 100% | pest or weed control at 400 ppm [4, 7]: 60 to 69% | pest or weed control at 200 ppm [2]: < 50%

Clc1cccc(-c2ccc(C3COC(c4c(Cl)cncc4Cl)=N3)cc2)c1 (centres unmarked) [Compound 20]
pest or weed control at 50 ppm [1]: < 50% | pest or weed control at 400 ppm [4]: 90 to 100%

Fc1ccc(-c2ccc(C3COC(c4c(Cl)cncc4Cl)=N3)cc2)cc1 (centres unmarked) [Compound 21]
pest or weed control at 50 ppm [1, 6]: 90 to 100% | pest or weed control [3]: 90 to 100% | pest or weed control at 200 ppm [2]: < 50% | pest or weed control at 400 ppm [5, 8]: 80 to 89%

FC(F)(F)c1ccccc1-c1ccc(C2COC(c3c(Cl)cncc3Cl)=N2)cc1 (centres unmarked) [Compound 22]
pest or weed control at 50 ppm [1, 6]: 70 to 79%

Fc1ccccc1-c1ccc(C2COC(c3c(Cl)cncc3Cl)=N2)cc1 (centres unmarked) [Compound 23]
pest or weed control at 50 ppm [1, 6]: 90 to 100% | pest or weed control [3]: 90 to 100% | pest or weed control at 400 ppm [4, 7]: 90 to 100% | pest or weed control at 400 ppm [5, 8]: 60 to 69%

FC(F)(F)c1cc(-c2ccc(C3COC(c4c(Cl)cncc4Cl)=N3)cc2)cc(C(F)(F)F)c1 (centres unmarked) [Compound 24]
pest or weed control at 50 ppm [1, 6]: < 50% | pest or weed control at 200 ppm [2]: < 50% | pest or weed control at 400 ppm [5, 8]: 90 to 100%

Cc1ccccc1-c1ccc(C2COC(c3c(Cl)cncc3Cl)=N2)cc1 (centres unmarked) [Compound 25]
pest or weed control at 50 ppm [1, 6]: 80 to 89% | pest or weed control at 400 ppm [4, 7]: < 50% | pest or weed control at 400 ppm [5, 8]: 90 to 100%

Cc1ccc(-c2ccc(C3COC(c4c(Cl)cncc4Cl)=N3)cc2)cc1F (centres unmarked) [Compound 26]
pest or weed control at 50 ppm [1, 6]: 60 to 69% | pest or weed control at 400 ppm [4, 7]: 60 to 69% | pest or weed control at 400 ppm [5, 8]: 60 to 69%

Clc1cncc(Cl)c1C1=NC(c2ccc(-c3ccccc3)cc2)CO1 (centres unmarked) [Compound 28]
pest or weed control at 50 ppm [1, 6]: < 50% | pest or weed control [3]: 90 to 100% | pest or weed control at 400 ppm [5, 8]: 80 to 89%

Cc1ccc(-c2ccc(C3COC(c4c(Cl)cncc4Cl)=N3)cc2)c(F)c1 (centres unmarked) [Compound 33]
pest or weed control at 50 ppm [1, 6]: < 50% | pest or weed control at 400 ppm [5, 8]: 80 to 89%

Fc1ccc(C(F)(F)F)cc1-c1ccc(C2COC(c3c(Cl)cncc3Cl)=N2)cc1 (centres unmarked) [Compound 34]
pest or weed control at 50 ppm [1, 6]: 80 to 89% | pest or weed control at 400 ppm [4, 7]: 90 to 100% | pest or weed control at 400 ppm [5, 8]: 60 to 69%

CSc1ccc(-c2ccc(C3COC(c4c(Cl)cncc4Cl)=N3)cc2)cc1 (centres unmarked) [Compound 35]
pest or weed control at 50 ppm [1, 6]: < 50% | pest or weed control at 400 ppm [4, 7]: 90 to 100% | pest or weed control at 400 ppm [5, 8]: 90 to 100%

FCSc1ccc(-c2ccc(C3COC(c4c(Cl)cncc4Cl)=N3)cc2)cc1 (centres unmarked) [Compound 37]
pest or weed control at 50 ppm [1, 6]: 90 to 100% | pest or weed control [3]: < 50% | pest or weed control at 400 ppm [4, 7]: 60 to 69%

Fc1cncc(F)c1C1=NC(c2ccc(I)cc2)CO1 (centres unmarked) [Compound 38, 2-(3,5-difluoro-4-pyridinyl)-4-(4-iodophenyl)oxazoline]
pest or weed control at 50 ppm [1, 6]: < 50% | pest or weed control [3]: 90 to 100% | pest or weed control at 200 ppm [2]: 90 to 100% | pest or weed control at 400 ppm [5, 8]: 70 to 79%

Fc1cncc(F)c1C1=NC(c2ccc(-c3ccc(OC(F)(F)F)cc3)cc2)CO1 (centres unmarked) [Compound 40]
pest or weed control at 50 ppm [1, 6]: < 50% | pest or weed control [3]: 90 to 100% | pest or weed control at 400 ppm [4, 7]: 90 to 100% | pest or weed control at 400 ppm [5, 8]: 90 to 100%

Cc1cc(Br)ccc1C1COC(c2c(Cl)cncc2Cl)=N1 (centres unmarked) [Compound 41, 4-[4-(4-bromo-2-methylphenyl)-4,5-dihydro-1,3-oxazol-2-yl]-3,5-dichloropyridine]
pest or weed control at 50 ppm [1, 6]: 90 to 100% | pest or weed control [3]: < 50% | pest or weed control at 200 ppm [2]: < 50%

CCOc1ccc(-c2ccc(C3COC(c4c(Cl)cncc4Cl)=N3)c(C)c2)cc1 (centres unmarked) [Compound 42]
pest or weed control at 50 ppm [1, 6]: 80 to 89% | pest or weed control [3]: 90 to 100% | pest or weed control at 400 ppm [4, 7]: 80 to 89% | pest or weed control at 400 ppm [5, 8]: 90 to 100%

C[C@H]1OC(c2c(Cl)cncc2Cl)=N[C@H]1c1ccc(I)cc1 [Compound 45, 4-[4-(4′-Iodophenyl)-5-methyl-4,5-dihydro-oxazol-2-yl]-3,5-dichloropyridines]
pest or weed control at 50 ppm [1, 6]: 90 to 100%

C[C@@H]1OC(c2c(Cl)cncc2Cl)=N[C@H]1c1ccc(I)cc1 [Compound 46, 4-[4-(4′-Iodophenyl)-5-methyl-4,5-dihydro-oxazol-2-yl]-3,5-dichloropyridines]
pest or weed control at 50 ppm [1, 6]: < 50% | pest or weed control [3]: < 50%
